Results on 3 molecules are retold here after ChEMBL document CHEMBL1212865, “New porphyrin amino acid conjugates: synthesis and photodynamic effect in human epithelial cells” (Bioorg Med Chem, 2010).

In data set [1] the test system is HaCaT. Kind of data set: Phototoxicity against human HaCaT cells assessed as surviving fraction at 0.22 uM under LED array light by MTT assay. The format is functional.
Data set [2] relates to HaCaT. Kind of data set: Phototoxicity against human HaCaT cells assessed as surviving fraction at 0.3 uM irradiated with 9.15 mW/cm'2 light for 5 mins by MTT assay. The class given is functional.
Data set [3] deals with HaCaT. Nature of the data set: Induction of apoptosis in human HaCaT cells assessed as change in loss of adheshin after irradiation with 9.15 mW/cm'2 light for 10 mins. The class given is functional, cell-based.
The test system of data set [4] is HaCaT. Nature of the data set: Phototoxicity against human HaCaT cells assessed as surviving fraction at 0.3 uM irradiated with 9.15 mW/cm'2 light for 15 mins by MTT assay. The class given is functional. On the technique in general: Formazan colour is commonly taken as a measure of viable cells.
Data set [5] concerns HeLa. Nature of the data set: Phototoxicity against human HeLa cells assessed as surviving fraction at 12 uM under LED array light by MTT assay. The format is functional.
Data set [6] has as its system HeLa. Nature of the data set: Phototoxicity against human HeLa cells assessed as surviving fraction at 1.2 uM under LED array light. The format is functional.
Data set [7] concerns HaCaT. Kind of data set: Phototoxicity against human HaCaT cells assessed as surviving fraction at 0.3 uM irradiated with 9.15 mW/cm'2 light for 10 mins by MTT assay. The class given is functional.
For data set [8], the system named is HaCaT. Kind of data set: Induction of apoptosis in human HaCaT cells assessed as change in loss of basophilia after irradiation with 9.15 mW/cm'2 light for 10 mins. The class given is functional, cell-based.
The subject of data set [9] is HaCaT. Nature of the data set: Induction of apoptosis in human HaCaT cells assessed as intracellular localization at 0.3 uM with 9.15 mW/cm'2 light for. The class given is functional, cell-based. The settings on record: TDE = time-dependent effect.
The subject of data set [10] is HeLa. Nature of the data set: Phototoxicity against human HeLa cells assessed as surviving fraction at 0.3 uM irradiated with 9.15 mW/cm'2 light for 5 mins by MTT assay. The format is functional.
The subject of data set [11] is HeLa. Nature of the data set: Phototoxicity against human HeLa cells assessed as surviving fraction at 0.22 uM under LED array light. The format is functional.
In data set [12] the test system is HeLa. Kind of data set: Phototoxicity against human HeLa cells assessed as surviving fraction at 0.3 uM irradiated with 9.15 mW/cm'2 light for 10 mins by MTT assay. The format is functional.
Data set [13] deals with HaCaT. Kind of data set: Phototoxicity against human HaCaT cells assessed as surviving fraction at 1.2 uM under LED array light. The class given is functional.
For data set [14], the system named is HaCaT. Kind of data set: Induction of apoptosis in human HaCaT cells assessed as change in cytoplasmic vacuolization after irradiation with 9.15 mW/cm'2 light for 10 mins. The format is functional, cell-based.
In data set [15] the test system is HeLa. Kind of data set: Induction of apoptosis in human HeLa cells assessed as intracellular localization at 0.25 uM with 9.15 mW/cm'2 light for. The class given is functional, cell-based. Conditions: TDE = time-dependent effect.
The subject of data set [16] is HeLa. Kind of data set: Phototoxicity against human HeLa cells assessed as surviving fraction at 0.61 uM under LED array light. The format is functional.
Data set [17] relates to HeLa. Kind of data set: Phototoxicity against human HeLa cells assessed as surviving fraction at 0.3 uM irradiated with 9.15 mW/cm'2 light for 15 mins by MTT assay. The format is functional.
Data set [18] concerns HeLa. Kind of data set: Phototoxicity against human HeLa cells assessed as surviving fraction at 2.4 uM under LED array light. The format is functional.
The subject of data set [19] is HaCaT. Kind of data set: Phototoxicity against human HaCaT cells assessed as surviving fraction at 12 uM under LED array light. The format is functional.
The subject of data set [20] is HaCaT. Kind of data set: Phototoxicity against human HaCaT cells assessed as surviving fraction at 2.4 uM under LED array light. The class given is functional.
Data set [21] deals with HeLa. Kind of data set: Phototoxicity against human HeLa cells assessed as survival at 0.3 uM irradiated with 9.15 mW/cm'2 light for 10 mins by MTT assay.
Data set [22] has as its system HaCaT. Nature of the data set: Phototoxicity against human HaCaT cells assessed as surviving fraction at 0.61 uM under LED array light by MTT assay. The class given is functional.
The test system of data set [23] is HaCaT. Nature of the data set: Induction of apoptosis in human HaCaT cells assessed as change in cellular morphology after irradiation with 9.15 mW/cm'2 light. The class given is functional, cell-based.
For data set [24], the system named is HaCaT. Kind of data set: Phototoxicity against human HaCaT cells assessed as surviving fraction at 1.2 uM irradiated with 9.15 mW/cm'2 light for 20 mins by MTT assay. The format is functional.
Data set [25] has as its system HaCaT. Kind of data set: Induction of apoptosis in human HaCaT cells assessed as intracellular localization at 1.2 uM with 9.15 mW/cm'2 light for. The class given is functional, cell-based. Conditions: TDE = time-dependent effect.
For data set [26], the system named is HeLa. Kind of data set: Phototoxicity against human HeLa cells assessed as surviving fraction at 1.2 uM irradiated with 9.15 mW/cm'2 light for 20 mins by MTT assay. The class given is functional.
Data set [27] deals with HeLa. Kind of data set: Phototoxicity against human HeLa cells assessed as survival at 1.2 uM irradiated with 9.15 mW/cm'2 light for 10 mins by MTT assay.
In data set [28] the test system is HaCaT. Nature of the data set: Phototoxicity against human HaCaT cells assessed as surviving fraction at 1.2 uM irradiated with 9.15 mW/cm'2 light for 10 mins by MTT assay. The class given is functional.
The subject of data set [29] is HeLa. Nature of the data set: Phototoxicity against human HeLa cells assessed as surviving fraction at 1.2 uM irradiated with 9.15 mW/cm'2 light for 10 mins by MTT assay. The class given is functional.
Data set [30] can be described thus: Induction of singlet oxygen production at 1 uM after irradiation at 10 mW/cm'2 in presence of 1,3-diphenylisobenzofuran. The class given is physicochemical.
In data set [31] the test system is HeLa. Nature of the data set: Phototoxicity against human HeLa cells assessed as surviving fraction at 1.2 uM irradiated with 9.15 mW/cm'2 light for 5 mins by MTT assay. The format is functional.
For data set [32], the system named is HaCaT. Kind of data set: Phototoxicity against human HaCaT cells assessed as surviving fraction at 0.25 uM irradiated with 9.15 mW/cm'2 light for 5 mins by MTT assay. The class given is functional.
Data set [33] relates to HeLa. Nature of the data set: Phototoxicity against human HeLa cells assessed as surviving fraction at 0.25 uM irradiated with 9.15 mW/cm'2 light for 5 mins by MTT assay. The class given is functional.
Data set [34] has as its system HeLa. Nature of the data set: Phototoxicity against human HeLa cells assessed as surviving fraction at 0.25 uM irradiated with 9.15 mW/cm'2 light for 20 mins by MTT assay. The class given is functional.
Data set [35] relates to HeLa. Nature of the data set: Phototoxicity against human HeLa cells assessed as surviving fraction at 0.25 uM irradiated with 9.15 mW/cm'2 light for 10 mins by MTT assay. The class given is functional.
Data set [36] concerns HeLa. Nature of the data set: Phototoxicity against human HeLa cells assessed as survival at 0.25 uM irradiated with 9.15 mW/cm'2 light for 10 mins by MTT assay.
The subject of data set [37] is HaCaT. Kind of data set: Induction of apoptosis in human HaCaT cells assessed as intracellular localization at 0.25 uM with 9.15 mW/cm'2 light for. The class given is functional, cell-based. Conditions: TDE = time-dependent effect.
Data set [38] can be described thus: Photostability of the compound irradiated with 9.15 mW/cm'2 white light. The class given is physicochemical.
Data set [39] deals with HaCaT. Kind of data set: Phototoxicity against human HaCaT cells assessed as surviving fraction at 0.25 uM irradiated with 9.15 mW/cm'2 light for 10 mins by MTT assay. The format is functional.
Data set [40] relates to HaCaT. Kind of data set: Phototoxicity against human HaCaT cells assessed as surviving fraction at 0.25 uM irradiated with 9.15 mW/cm'2 light for 20 mins by MTT assay. The format is functional.

Molecules are shown by their SMILES. Activity calls are given as the source filed them. The calls are words filed in the database; no cut-off is given here.

Regarding `COC(=O)C(CC[S+](C)[O-])NC(=O)c1ccc(-c2c3nc(c(-c4cccc(OC)c4)c4ccc([nH]4)c(-c4cccc(OC)c4)c4nc(c(-c5cccc(OC)c5)c5ccc2[nH]5)C=C4)C=C3)cc1` (configuration not stated), the Activity is reported as 99.2% in the data set with HaCaT [1]; 76.87% in the data set on HaCaT [2]; 28.2% with HaCaT [4]; 16.93% in the data set on HeLa [5]; 95.69% with HeLa [6]; 53.02% in the data set with HaCaT [7]. The Activity result in the data set with HaCaT [9] is “tde”; in the data set with HeLa [10], 56.87%; with HeLa [11] it was 93.26%; with HeLa [12], 14.23%; in the data set with HaCaT [13] it was 103.4%; in the data set with HeLa [15] it was “tde”. Moreover, the Activity came to 92.61% with HeLa [16]; 10.93% with HeLa [17]; 93.5% in the data set on HeLa [18]; 16.9% in the data set on HaCaT [19]; 101.3% in the data set with HaCaT [20]; 101.5% in the data set on HaCaT [22]. Moreover, the result with HaCaT [3], in the data set on HaCaT [8] and in the data set with HaCaT [14] was Active. For the same molecule, the Survival in the data set with HeLa [21] is reported as 53.02%.

For `COC(=O)C(CO)NC(=O)c1ccc(-c2c3nc(c(-c4cccc(OC)c4)c4ccc([nH]4)c(-c4cccc(OC)c4)c4nc(c(-c5cccc(OC)c5)c5ccc2[nH]5)C=C4)C=C3)cc1` (configuration not stated), in the data set on HaCaT [23], the outcome was Active. For the same molecule, the Activity in the data set on HaCaT [1] is 101.49%; with HaCaT [24], 22.54%; in the data set with HeLa [5], 67.33%; in the data set on HeLa [6], 102.78%; in the data set with HaCaT [25] it was “tde”; with HeLa [26], 0%. Further, the Activity in the data set on HeLa [11] was 102.58%; in the data set on HaCaT [13], 102.65%; with HeLa [15], “tde”; in the data set on HeLa [16] it was 100.28%; with HeLa [18], 91.48%; with HaCaT [28], 42.75%. The Activity is on record as 96.98% in the data set with HaCaT [19]; 97.54% with HaCaT [20]; 0% in the data set with HeLa [29]; 104.72% with HaCaT [22]; “Active” in data set [30]; 8% in the data set with HeLa [31]. The Survival in the data set on HeLa [27] turned out to be 42.75%.

In the case of `COC(=O)CNC(=O)c1ccc(-c2c3nc(c(-c4cccc(OC)c4)c4ccc([nH]4)c(-c4cccc(OC)c4)c4nc(c(-c5cccc(OC)c5)c5ccc2[nH]5)C=C4)C=C3)cc1`, the Activity in the data set with HaCaT [32] was found to be 82.69%; with HeLa [33], 3.74%; in the data set on HaCaT [1], 94.98%; in the data set with HeLa [34] it was 1.32%; in the data set on HeLa [35], 1.13%; in the data set on HeLa [5] it was 60.42%. Further, the Activity in the data set with HeLa [6] is 106.97%; in the data set with HaCaT [37], “tde”; in the data set on HeLa [11], 107.31%; in the data set on HaCaT [39], 50.96%; in the data set with HaCaT [13] it was 102.19%; with HeLa [16], 110.38%. Further, the Activity with HeLa [18] amounted to 104.89%; with HaCaT [19] it was 24.3%; in the data set with HaCaT [20], 109.91%; in the data set on HaCaT [22], 97.96%; in the data set on HaCaT [40], 22.11%. The outcome with HaCaT [23] was Active. Also, in the data set on HeLa [36], the Survival is 50.96%. Also, the Stability result in [38] is recorded as “Stable”.
